Measurements taken from paper PMC5218480 (PLoS ONE, 2017).

Tested on: MV-4-11 cells
Assay: Gene expression microarray analysis (Affymetrix PrimeView) and GSEA
Assay type: cell-based, human
Design: RFU PODN (11730768_x_at) / Fold change /veh PODN (11730768_x_at) / RFU LINC00158 (11744669_a_at) / Fold change /veh LINC00158 (11744669_a_at) / RFU DUSP10 (11751237_a_at) / Fold change /veh DUSP10 (11751237_a_at) / RFU ID3 (11757404_x_at) / Fold change /veh ID3 (11757404_x_at) / RFU PLEKHG5 (11737974_s_at) / Fold change /veh PLEKHG5 (11737974_s_at) / RFU LRRC4B (11730491_at) / Fold change /veh LRRC4B (11730491_at) / RFU GIMAP4 (11747438_a_at) / Fold change /veh GIMAP4 (11747438_a_at) / RFU KRT8 (11758183_x_at) / Fold change /veh KRT8 (11758183_x_at) / RFU CNN1 (11734310_a_at) / Fold change /veh CNN1 (11734310_a_at) / RFU VPS37D (11726825_at) / Fold change /veh VPS37D (11726825_at) / RFU C10orf10 (11716522_x_at) / Fold change /veh C10orf10 (11716522_x_at) / RFU KIR2DL2 /// KIR2DL4 /// KIR2DL5A /// KIR2DL5B /// KIR2DS1 /// KIR2DS2 /// KIR2DS3 /// KIR2DS4 /// KIR3DL3 /// KIR3DL3 /// KIR3DS1 (11738374_at) / Fold change /veh KIR2DL2 /// KIR2DL4 /// KIR2DL5A /// KIR2DL5B /// KIR2DS1 /// KIR2DS2 /// KIR2DS3 /// KIR2DS4 /// KIR3DL3 /// KIR3DL3 /// KIR3DS1 (11738374_at) / RFU C1QL1 (11718748_at) / Fold change /veh C1QL1 (11718748_at) / RFU TMPRSS4 (11747572_a_at) / Fold change /veh TMPRSS4 (11747572_a_at) / RFU HAMP (11756126_x_at) / Fold change /veh HAMP (11756126_x_at) / RFU RNFT2 (11725882_a_at) / Fold change /veh RNFT2 (11725882_a_at) / RFU NR4A2 (11747474_a_at) / Fold change /veh NR4A2 (11747474_a_at) / RFU ABCC12 (11746883_a_at) / Fold change /veh ABCC12 (11746883_a_at) / RFU TMEM136 (11760407_x_at) / Fold change /veh TMEM136 (11760407_x_at) / RFU CLDN22 /// WWC2 (11732394_at) / Fold change /veh CLDN22 /// WWC2 (11732394_at) / RFU HLA-DPB1 (11760878_x_at) / Fold change /veh HLA-DPB1 (11760878_x_at) / RFU SPINT1 (11716480_a_at) / Fold change /veh SPINT1 (11716480_a_at) / RFU GAP43 (11754022_s_at) / Fold change /veh GAP43 (11754022_s_at) / RFU A4GNT (11735810_at) / Fold change /veh A4GNT (11735810_at) / RFU PRB3 (11715151_x_at) / Fold change /veh PRB3 (11715151_x_at) / RFU TUBB4B (11761932_at) / Fold change /veh TUBB4B (11761932_at) / RFU CAPN14 (11732068_a_at) / Fold change /veh CAPN14 (11732068_a_at) / RFU TMCC2 (11721928_a_at) / Fold change /veh TMCC2 (11721928_a_at) / RFU IRGQ (11745062_a_at) / Fold change /veh IRGQ (11745062_a_at) / RFU FAM174B (11720279_a_at) / Fold change /veh FAM174B (11720279_a_at) / RFU TMPRSS4 (11748680_a_at) / Fold change /veh TMPRSS4 (11748680_a_at) / RFU FAM212B (11763350_a_at) / Fold change /veh FAM212B (11763350_a_at) / RFU PLEKHG5 (11743358_a_at) / Fold change /veh PLEKHG5 (11743358_a_at) / RFU ZSCAN30 (11745921_a_at) / Fold change /veh ZSCAN30 (11745921_a_at) / RFU CMKLR1 (11741424_a_at) / Fold change /veh CMKLR1 (11741424_a_at) / RFU LOC101060620 /// MAPK8IP1 (11723275_at) / Fold change /veh LOC101060620 /// MAPK8IP1 (11723275_at) / RFU SPTSSB (11747773_x_at) / Fold change /veh SPTSSB (11747773_x_at) / RFU PRSS12 (11739890_at) / Fold change /veh PRSS12 (11739890_at) / RFU BIN1 (11741810_x_at) / Fold change /veh BIN1 (11741810_x_at) / RFU WNT11 (11732464_a_at) / Fold change /veh WNT11 (11732464_a_at) / RFU C10orf10 (11716521_a_at) / Fold change /veh C10orf10 (11716521_a_at) / RFU C5orf56 (11738089_at) / Fold change /veh C5orf56 (11738089_at) / RFU CYB561 (11721691_x_at) / Fold change /veh CYB561 (11721691_x_at) / RFU ANKRD19P (11752326_a_at) / Fold change /veh ANKRD19P (11752326_a_at) / RFU OR2T12 /// OR2T33 /// OR2T8 (11738714_s_at) / Fold change /veh OR2T12 /// OR2T33 /// OR2T8 (11738714_s_at) / RFU VCAN (11748164_a_at) / Fold change /veh VCAN (11748164_a_at) / RFU JSRP1 (11732532_at) / Fold change /veh JSRP1 (11732532_at) / RFU KRTAP10-11 (11738290_x_at) / Fold change /veh KRTAP10-11 (11738290_x_at) / RFU MYO3A (11730013_a_at) / Fold change /veh MYO3A (11730013_a_at) / RFU EBF3 (11725865_a_at) / Fold change /veh EBF3 (11725865_a_at) / RFU CAMK2N1 (11719241_x_at) / Fold change /veh CAMK2N1 (11719241_x_at) / RFU C5orf56 (11738088_a_at) / Fold change /veh C5orf56 (11738088_a_at) / RFU OLFML3 (11715873_a_at) / Fold change /veh OLFML3 (11715873_a_at) / RFU LOC100653217 /// NTM (11731650_a_at) / Fold change /veh LOC100653217 /// NTM (11731650_a_at) / RFU MAPK11 (11762145_a_at) / Fold change /veh MAPK11 (11762145_a_at) / RFU FIZ1 (11724087_x_at) / Fold change /veh FIZ1 (11724087_x_at) / RFU OASL (11726364_x_at) / Fold change /veh OASL (11726364_x_at) / RFU SOX15 (11748057_x_at) / Fold change /veh SOX15 (11748057_x_at) / RFU CD79A (11719716_a_at) / Fold change /veh CD79A (11719716_a_at) / RFU HIST1H1D (11736915_at) / Fold change /veh HIST1H1D (11736915_at) / RFU CASKIN2 (11723855_a_at) / Fold change /veh CASKIN2 (11723855_a_at) / RFU LOC730098 (11760151_x_at) / Fold change /veh LOC730098 (11760151_x_at) / RFU OR4N2 (11742367_at) / Fold change /veh OR4N2 (11742367_at) / RFU PRRT2 (11749266_a_at) / Fold change /veh PRRT2 (11749266_a_at) / RFU SNX32 (11753110_a_at) / Fold change /veh SNX32 (11753110_a_at) / RFU CDHR5 (11726645_a_at) / Fold change /veh CDHR5 (11726645_a_at) / RFU RCAN1 (11760418_a_at) / Fold change /veh RCAN1 (11760418_a_at) / RFU FAM167A (11723789_a_at) / Fold change /veh FAM167A (11723789_a_at) / RFU FAM26E (11764081_at) / Fold change /veh FAM26E (11764081_at) / RFU ISYNA1 (11749810_s_at) / Fold change /veh ISYNA1 (11749810_s_at) / RFU ACY1 (11761880_at) / Fold change /veh ACY1 (11761880_at) / RFU 11764098_at / Fold change /veh 11764098_at / RFU SAMD14 (11745864_x_at) / Fold change /veh SAMD14 (11745864_x_at) / RFU NPB (11741838_a_at) / Fold change /veh NPB (11741838_a_at) / RFU TMPRSS6 (11731388_a_at) / Fold change /veh TMPRSS6 (11731388_a_at) / RFU KRTAP10-2 (11738614_at) / Fold change /veh KRTAP10-2 (11738614_at) / RFU ARHGAP8 /// PRR5-ARHGAP8 (11727945_x_at) / Fold change /veh ARHGAP8 /// PRR5-ARHGAP8 (11727945_x_at) / RFU KRTAP5-7 /// NADSYN1 (11734609_at) / Fold change /veh KRTAP5-7 /// NADSYN1 (11734609_at) / RFU RASL12 (11751679_a_at) / Fold change /veh RASL12 (11751679_a_at) / RFU CDKN2B (11736163_a_at) / Fold change /veh CDKN2B (11736163_a_at) / RFU PRF1 (11729649_at) / Fold change /veh PRF1 (11729649_at) / RFU, ZNF638 /// ZNF638-IT1 / Fold change vs veh, ZNF638 /// ZNF638-IT1 / RFU, PANK3 / Fold change vs veh, PANK3 / RFU, SH3YL1 / Fold change vs veh, SH3YL1 / RFU, ZEB2 / Fold change vs veh, ZEB2 / RFU, NRIP1 / Fold change vs veh, NRIP1 / RFU, PTTG1IP / Fold change vs veh, PTTG1IP / RFU, CAPN2 / Fold change vs veh, CAPN2 / RFU, MED14 / Fold change vs veh, MED14 / RFU, SNORA58 / Fold change vs veh, SNORA58 / RFU, C1orf63 / Fold change vs veh, C1orf63 / RFU, LRRFIP1 / Fold change vs veh, LRRFIP1 / RFU, NDUFAF7 / Fold change vs veh, NDUFAF7 / RFU, SLC12A2 / Fold change vs veh, SLC12A2 / RFU, IBTK / Fold change vs veh, IBTK / RFU, ESF1 / Fold change vs veh, ESF1 / Fold change vs veh, TMEM50B / RFU, TAOK1 / Fold change vs veh, TAOK1 / RFU, ACBD3 / Fold change vs veh, ACBD3 / RFU, TMA16 / Fold change vs veh, TMA16 / RFU, RWDD3 / Fold change vs veh, RWDD3 / RFU, BCAT1 / Fold change vs veh, BCAT1 / RFU, EDEM3 / Fold change vs veh, EDEM3 / RFU, TMEM33 / Fold change vs veh, TMEM33 / RFU, WDR75 / Fold change vs veh, WDR75 / RFU, AHCTF1 / Fold change vs veh, AHCTF1 / RFU, TFRC / Fold change vs veh, TFRC / RFU, ZDHHC17 / Fold change vs veh, ZDHHC17 / RFU, NOM1 / Fold change vs veh, NOM1 / RFU, ARL8B / Fold change vs veh, ARL8B / RFU, ZBTB11 / Fold change vs veh, ZBTB11 / RFU, TAMM41 / Fold change vs veh, TAMM41 / RFU, KIAA1704 /// LOC100996395 / Fold change vs veh, KIAA1704 /// LOC100996395 / RFU, ING1 / Fold change vs veh, ING1 / RFU, TRMT61B / Fold change vs veh, TRMT61B / RFU, FUBP3 / Fold change vs veh, FUBP3 / RFU, TP53 / Fold change vs veh, TP53 / RFU, TNKS2 / Fold change vs veh, TNKS2 / RFU, ZFP14 / Fold change vs veh, ZFP14 / RFU, ACTR2 / Fold change vs veh, ACTR2 / RFU, PPP3R1 / Fold change vs veh, PPP3R1 / RFU, PIK3R1 / Fold change vs veh, PIK3R1 / RFU, HNRNPA1 / Fold change vs veh, HNRNPA1 / RFU, RNF170 / Fold change vs veh, RNF170 / RFU, ZNF28 / Fold change vs veh, ZNF28 / RFU, RNGTT / Fold change vs veh, RNGTT / RFU, OGT / Fold change vs veh, OGT / RFU, BRD1 / Fold change vs veh, BRD1 / RFU, MARS / Fold change vs veh, MARS / RFU, ZNF655 / Fold change vs veh, ZNF655 / RFU, FAHD1 / Fold change vs veh, FAHD1 / RFU, BDP1 / Fold change vs veh, BDP1 / RFU, LRRCC1 / Fold change vs veh, LRRCC1 / RFU, ARID1A / Fold change vs veh, ARID1A / RFU, ZNF146 / Fold change vs veh, ZNF146 / RFU, ZNF330 / Fold change vs veh, ZNF330 / RFU, GPN3 / Fold change vs veh, GPN3 / RFU, C9orf123 / Fold change vs veh, C9orf123 / RFU, N4BP2L2 / Fold change vs veh, N4BP2L2 / RFU, ARFIP1 / Fold change vs veh, ARFIP1 / RFU, FAM179B / Fold change vs veh, FAM179B / RFU, BCL10 / Fold change vs veh, BCL10 / RFU, UHRF1BP1L / Fold change vs veh, UHRF1BP1L / RFU, BET1 / Fold change vs veh, BET1 / RFU, CNOT2 / Fold change vs veh, CNOT2 / RFU, ZNF268 / Fold change vs veh, ZNF268 / Fold change vs veh, ZNF507 / RFU, DGCR2 / Fold change vs veh, DGCR2 / RFU, WDSUB1 / Fold change vs veh, WDSUB1 / Fold change vs veh, HSP90B1 /// MIR3652 / RFU, ADSS / Fold change vs veh, ADSS / RFU, GK / Fold change vs veh, GK / RFU, ZNF148 / Fold change vs veh, ZNF148 / RFU, TAF9 / Fold change vs veh, TAF9 / RFU, SLC1A5 / Fold change vs veh, SLC1A5 / RFU, SLMO2 / Fold change vs veh, SLMO2 / RFU, ABCC4 / Fold change vs veh, ABCC4 / RFU, LOC101060439 /// RAP1B / Fold change vs veh, LOC101060439 /// RAP1B / RFU, RFX7 / Fold change vs veh, RFX7 / RFU, GTPBP10 / Fold change vs veh, GTPBP10 / RFU, CNEP1R1 / Fold change vs veh, CNEP1R1 / RFU, BIVM-ERCC5 /// ERCC5 / Fold change vs veh, BIVM-ERCC5 /// ERCC5 / RFU, ILF3 / Fold change vs veh, ILF3 / RFU 11762660_at / Fold change /veh 11762660_at / RFU VCAN (11757783_s_at) / Fold change /veh VCAN (11757783_s_at) / RFU DDX43 (11728927_at) / Fold change /veh DDX43 (11728927_at) / RFU KRT8 (11758188_x_at) / Fold change /veh KRT8 (11758188_x_at) / RFU NKD1 (11759106_at) / Fold change /veh NKD1 (11759106_at) / RFU SRD5A1 (11742802_a_at) / Fold change /veh SRD5A1 (11742802_a_at) / RFU TPSAB1 /// TPSB2 (11721975_s_at) / Fold change /veh TPSAB1 /// TPSB2 (11721975_s_at) / RFU GSTM3 (11746129_a_at) / Fold change /veh GSTM3 (11746129_a_at) / RFU IL23R (11737362_x_at) / Fold change /veh IL23R (11737362_x_at) / RFU TMEM51 (11727254_a_at) / Fold change /veh TMEM51 (11727254_a_at) / RFU PIWIL2 (11732686_x_at) / Fold change /veh PIWIL2 (11732686_x_at) / RFU ORM1 (11744905_x_at) / Fold change /veh ORM1 (11744905_x_at) / RFU CCDC152 (11743942_at) / Fold change /veh CCDC152 (11743942_at) / RFU ECM1 (11717891_a_at) / Fold change /veh ECM1 (11717891_a_at) / RFU IL23R (11748794_a_at) / Fold change /veh IL23R (11748794_a_at) / RFU TNFAIP8L3 (11732012_x_at) / Fold change /veh TNFAIP8L3 (11732012_x_at) / RFU MBOAT4 (11741988_at) / Fold change /veh MBOAT4 (11741988_at) / RFU 11764193_at / Fold change /veh 11764193_at / RFU TMEM53 (11763286_at) / Fold change /veh TMEM53 (11763286_at) / RFU MAGEB2 (11727129_at) / Fold change /veh MAGEB2 (11727129_at) / RFU TMEM200A (11744735_a_at) / Fold change /veh TMEM200A (11744735_a_at) / RFU CCDC152 (11751479_a_at) / Fold change /veh CCDC152 (11751479_a_at) / RFU FAM211A (11726209_a_at) / Fold change /veh FAM211A (11726209_a_at) / RFU RGS16 (11746705_a_at) / Fold change /veh RGS16 (11746705_a_at) / RFU VCAN (11755009_s_at) / Fold change /veh VCAN (11755009_s_at) / RFU RHOB (11743442_s_at) / Fold change /veh RHOB (11743442_s_at) / RFU RGS16 (11720943_a_at) / Fold change /veh RGS16 (11720943_a_at) / RFU RGS16 (11720944_at) / Fold change /veh RGS16 (11720944_at) / RFU, VPS4B / Fold change vs veh, VPS4B / RFU, CREB1 / Fold change vs veh, CREB1 / RFU, DNAJC13 / Fold change vs veh, DNAJC13 / RFU, GNAQ / Fold change vs veh, GNAQ / RFU, CDK5R1 / Fold change vs veh, CDK5R1 / RFU, ZRANB3 / Fold change vs veh, ZRANB3 / RFU, CUL4A / Fold change vs veh, CUL4A / RFU, CCNY / Fold change vs veh, CCNY / RFU, UFL1 / Fold change vs veh, UFL1 / RFU, COG3 / Fold change vs veh, COG3 / RFU, DIAPH2 / Fold change vs veh, DIAPH2 / RFU, SKA2 / Fold change vs veh, SKA2 / RFU, AFF3 / Fold change vs veh, AFF3 / RFU, LMF1 / Fold change vs veh, LMF1 / RFU, IPO11 / Fold change vs veh, IPO11 / RFU, DFFB / Fold change vs veh, DFFB / RFU, FOXP1 / Fold change vs veh, FOXP1 / RFU, CARD8 / Fold change vs veh, CARD8 / RFU, STRN3 / Fold change vs veh, STRN3 / RFU, ADK / Fold change vs veh, ADK / RFU, RASSF2 / Fold change vs veh, RASSF2 / RFU, WIPF1 / Fold change vs veh, WIPF1 / RFU, LARP1B / Fold change vs veh, LARP1B / RFU, RASA1 / Fold change vs veh, RASA1 / RFU, RB1 / Fold change vs veh, RB1 / RFU, PPFIA1 / Fold change vs veh, PPFIA1 / RFU, MAT2A / Fold change vs veh, MAT2A / RFU, CCT5 / Fold change vs veh, CCT5 / RFU, WDR92 / Fold change vs veh, WDR92 / RFU, CUX1 / Fold change vs veh, CUX1 / RFU, TTC7A / Fold change vs veh, TTC7A / RFU, TMEM135 / Fold change vs veh, TMEM135 / RFU, DEPTOR / Fold change vs veh, DEPTOR / RFU, CPM / Fold change vs veh, CPM / RFU, DNAJB6 / Fold change vs veh, DNAJB6 / RFU, CACNA2D3 / Fold change vs veh, CACNA2D3 / RFU, DTX4 / Fold change vs veh, DTX4 / RFU, TFCP2 / Fold change vs veh, TFCP2 / RFU, GMCL1 /// GMCL1P1 / Fold change vs veh, GMCL1 /// GMCL1P1 / RFU, AEBP2 / Fold change vs veh, AEBP2 / RFU, SNHG1 /// SNORD22 /// SNORD25 /// SNORD26 /// SNORD27 /// SNORD28 /// SNORD29 /// SNORD31 / Fold change vs veh, SNHG1 /// SNORD22 /// SNORD25 /// SNORD26 /// SNORD27 /// SNORD28 /// SNORD29 /// SNORD31 / Fold change (Aza/veh), C12orf56 (ProbeSet 11735607_a_at) / Fold change (ACY-1035/veh), C12orf56 (ProbeSet 11735607_a_at) / Fold change (Aza/veh), FGFR1OP (ProbeSet 11751329_s_at) / Fold change (ACY-1035/veh), FGFR1OP (ProbeSet 11751329_s_at) / Fold change (Aza/veh), VPS36 (ProbeSet 11739960_a_at) / Fold change (ACY-1035/veh), VPS36 (ProbeSet 11739960_a_at) / RFU SYPL1 (11715823_x_at) / Fold change /veh SYPL1 (11715823_x_at) / RFU IGFBP7 (11715501_s_at) / Fold change /veh IGFBP7 (11715501_s_at) / RFU REEP3 (11722064_at) / Fold change /veh REEP3 (11722064_at) / RFU IGLL1 (11728026_x_at) / Fold change /veh IGLL1 (11728026_x_at): dose or concentration left out as unconfirmed
Details: ProbeSet 11729384_s_at; LIST D

Nc1ncn([C@@H]2O[C@H](CO)[C@@H](O)[C@H]2O)c(=O)n1 [azacitidine]
RFU, CCNY: 167.26 RFU
